Test results from the NIST ThermoML archive (doi:10.1021/je3002078).
± gives the expanded uncertainty stated by the source.

Conditions: Liquid; for mass density: 101.33 kPa, Vibrating tube method; for vapor or sublimation pressure: Ebulliometric method (Recirculating still)

mass density (303.15 K) | mass density (308.15 K) | vapor or sublimation pressure (442.28 K) | vapor or sublimation pressure (489.79 K) | vapor or sublimation pressure (474.01 K) | Structure (SMILES) | vapor or sublimation pressure (399.89 K)
1008.12 ± 0.51 kg/m3 | 1005.08 ± 0.51 kg/m3 | 95.3 ± 7.1 kPa | – | – | NCCO [2-aminoethan-1-ol] | –
1012.65 ± 0.51 kg/m3 | 1008.68 ± 0.51 kg/m3 | – | 95.3 ± 7.1 kPa | – | OCCc1ccccc1 [2-phenylethanol] | –
1023.45 ± 0.51 kg/m3 | 1013.34 ± 0.51 kg/m3 | – | – | 95.3 ± 7.1 kPa | CN1CCCC1=O [N-methylpyrrolidone] | –

Structure (SMILES) | mass density (303.15 K) | mass density (308.15 K) | vapor or sublimation pressure (442.28 K) | vapor or sublimation pressure (489.79 K) | vapor or sublimation pressure (474.01 K) | vapor or sublimation pressure (399.89 K)
OCCCl [1-chloro-2-hydroxyethane] | 1192.48 ± 0.53 kg/m3 | 1186.44 ± 0.53 kg/m3 | – | – | – | 95.3 ± 7.1 kPa
